Measured values reported in patent US11098090B2, “Mycobacteria tuberculosis chaperonin 60.1 peptides and uses thereof” (Revolo Biotherapeutics Limited, priority 2017, dated 2021).
Entries after “also recorded” stand apart in the source; their conditions may differ. Where no end group is shown, it is not given here.

Key:
[1] = Plasma stability at 37° C., mouse plasma; assay type: in vitro ADME
Protocol: (§1) Plasma Stability in Mouse, Rat and Human Plasma at 37° C.
(§2) Plasma: mouse (C57 Black 6 Male), rat (Sprague Dawley) and human containing heparin as an anti-coagulant.
(§3) Plasma samples in duplicate were incubated with peptide at 3 μM in a 600 μl volume at 37° C. with shaking. 50 μl aliquots were withdrawn after 2, 5, 30, 60 and 120 mins and quenched into 150 μl of ice-cold methanol containing the internal standard (tolbutamide). Samples were stored at −20° C. for 2 hours to allow protein precipitation. Samples were then centrifuged at 2500×g and the resulting supernatants transferred to a 96 well plate for LC-MS/MS analysis. Thalf was calculated in all matrices for each peptide.

[2] = Plasma stability at 37° C., rat plasma; assay type: in vitro ADME
Protocol: as §1, §2, §3

[3] = Plasma stability at 37° C., human plasma; assay type: in vitro ADME
Protocol: as §1, §2, §3

[4] = test system: LPS induced lung neutrophil influx; test: LPS mouse model of lung inflammation (BAL neutrophil count); assay type: in vivo; settings: for efficacy against LPS induced lung neutrophil influx: 50 pg/mouse i.v.
[5] = Plasma stability, overall statements for mouse, rat and human plasma; assay type: in vitro ADME; settings: for plasma stability / half-life (Th) compared with parent peptide SEQ ID NO: 17: rat and human plasma
Protocol: as §1, §2, §3

[6] = test system: recruitment of eosinophils; settings: animal model of allergic airway inflammation; from WO2009106819; cited from earlier work
[7] = Table 7, same conditions as Example 3, read-out: Plasma half life Mouse
[8] = Table 7, same conditions as Example 3, read-out: Plasma half life Rat
[9] = Table 7, same conditions as Example 3, read-out: Plasma half life Man
[10] = Table 4, read-out: Plasma half life Mouse
[11] = Table 4, read-out: Plasma half life Rat
[12] = Table 4, read-out: Plasma half life Man

`CC(C)C[C@H](NC(=O)CNC(=O)[C@H](N)Cc1c[nH]cn1)C(=O)N[C@@H](CC(N)=O)C(=O)N[C@H](C(=O)N[C@@H](CC(N)=O)C(=O)N[C@H](C(=O)N[C@@H](CC(C)C)C(=O)N[C@@H](CO)C(=O)N[C@@H](Cc1ccc(O)cc1)C(=O)NCC(=O)N[C@H](CC(=O)O)C(N)=O)[C@@H](C)O)C(C)C` [SEQ ID NO: 14, hGLNVNTLSYGd-NH2] gave a half-life [1, 7] of 0.833 h, a half-life [2, 8] of 2.55 h and a half-life [3, 9] of 2.58 h.

`CC(C)C[C@H](NC(=O)CNC(=O)[C@@H](N)Cc1c[nH]cn1)C(=O)N[C@@H](CC(N)=O)C(=O)N[C@H](C(=O)N[C@@H](CC(N)=O)C(=O)N[C@H](C(=O)N[C@@H](CC(C)C)C(=O)N[C@@H](CO)C(=O)N[C@@H](Cc1ccc(O)cc1)C(=O)NCC(=O)N[C@H](CC(=O)O)C(N)=O)[C@@H](C)O)C(C)C` [SEQ ID NO: 15, HGLNVNTLSYGd-NH2] showed a half-life [1, 7] of 0.65 h, a half-life [2, 8] of 3.03 h and a half-life [3, 9] of 1.4 h.

`CC(C)C[C@H](NC(=O)CNC(=O)[C@H](N)Cc1c[nH]cn1)C(=O)N[C@@H](CC(N)=O)C(=O)N[C@H](C(=O)N[C@@H](CC(N)=O)C(=O)N[C@H](C(=O)N[C@@H](CC(C)C)C(=O)N[C@@H](CO)C(=O)N[C@@H](Cc1ccc(O)cc1)C(=O)NCC(=O)N[C@@H](CC(=O)O)C(N)=O)[C@@H](C)O)C(C)C` [SEQ ID NO: 16, hGLNVNTLSYGD-NH2] gave a half-life [1, 7] of 0.583 h, a half-life [2, 8] of 3.33 h and a half-life [3, 9] of 1.85 h.

For `CC(C)C[C@H](NC(=O)CNC(=O)[C@@H](N)Cc1c[nH]cn1)C(=O)N[C@@H](CC(N)=O)C(=O)N[C@H](C(=O)N[C@@H](CC(N)=O)C(=O)N[C@H](C(=O)N[C@@H](CC(C)C)C(=O)N[C@@H](CO)C(=O)N[C@@H](Cc1ccc(O)cc1)C(=O)NCC(=O)N[C@@H](CC(=O)O)C(N)=O)[C@@H](C)O)C(C)C` [SEQ ID NO: 17, HGLNVNTLSYGD-NH2], the “effect on LPS induced lung neutrophil influx (number of neutrophils)” value ([4]; different doses (0.5, 5 or 50 pg/mouse)) was “reduction in the number of neutrophils”, the half-life ([1]; Table 3, 37° C., peptide 3 μM, read-out: Plasma Half Life (Th) Mouse) was 0.333 h and the half-life ([2]; Table 3, 37° C., peptide 3 μM, read-out: Plasma Half Life (Th) Rat) was 0.717 h. The half-life ([3]; Table 3, 37° C., peptide 3 μM, read-out: Plasma Half Life (Th) Man) was 1.2 h.

Work on `CC(=O)N[C@H](CC(=O)O)C(=O)NCC(=O)N[C@H](Cc1ccc(O)cc1)C(=O)N[C@H](CO)C(=O)N[C@H](CC(C)C)C(=O)N[C@@H](C(=O)N[C@H](CC(N)=O)C(=O)N[C@@H](C(=O)N[C@H](CC(N)=O)C(=O)N[C@H](CC(C)C)C(=O)NCC(=O)N[C@H](Cc1c[nH]cn1)C(N)=O)C(C)C)[C@H](C)O` [SEQ ID NO: 19, Ac-dGysltnvnlGh-NH2] yielded a half-life [1, 7] greater than 6 h, a half-life [2, 8] greater than 6 h and a half-life [3, 9] greater than 6 h. The “plasma stability / half-life (Th) compared with parent peptide SEQ ID NO: 17” value [5] was “enhanced plasma stability”.

With `CC(=O)N[C@H](Cc1c[nH]cn1)C(=O)NCC(=O)N[C@H](CC(C)C)C(=O)N[C@H](CC(N)=O)C(=O)N[C@@H](C(=O)N[C@H](CC(N)=O)C(=O)N[C@@H](C(=O)N[C@H](CC(C)C)C(=O)N[C@H](CO)C(=O)N[C@H](Cc1ccc(O)cc1)C(=O)NCC(=O)N[C@H](CC(=O)O)C(N)=O)[C@H](C)O)C(C)C` [SEQ ID NO: 20, Ac-hGlnvntlsyGd-NH2] the half-life [1, 7] was greater than 6 h, the half-life [2, 8] was 3.03 h and the half-life [3, 9] was greater than 6 h. The “plasma stability / half-life (Th) compared with parent peptide SEQ ID NO: 17” value [5] was “enhanced plasma stability”.

Compound `CC(C)C[C@@H]1NC(=O)CNC(=O)[C@H](Cc2c[nH]cn2)NC(=O)[C@H](CC(=O)O)NC(=O)CNC(=O)[C@H](Cc2ccc(O)cc2)NC(=O)[C@H](CO)NC(=O)[C@H](CC(C)C)NC(=O)[C@H]([C@@H](C)O)NC(=O)[C@H](CC(N)=O)NC(=O)[C@H](C(C)C)NC(=O)[C@H](CC(N)=O)NC1=O` [SEQ ID NO: 25, cyclic-HGLNVNTLSYGD-] has a half-life [1, 7] of 0.167 h, a half-life [2, 8] of 0.35 h and a half-life [3, 9] of 0.75 h. For the same compound, the “plasma stability / half-life (Th) compared with parent peptide SEQ ID NO: 17” value [5] was “did not improve plasma stability”.

For “H-DGSVVVNKVSEL-NH2 [SEQ ID NO: 3, DGSVVVNKVSEL-NH2]”, the “efficacy against LPS induced lung neutrophil influx” value ([4]; dosed up to 60 mins prior to LPS challenge (FIG. 2)) was “efficacious”, the “efficacy against LPS induced lung neutrophil influx” value ([4]; dosed up to 120 mins post LPS challenge (FIG. 3)) was “efficacious” and the “efficacy in the LPS mouse model” value ([4]; dosed intravenously) was “effective”.

In the case of “H-DGSVVVNKVSELPAGHGLNVNTLSYGDLAAD [SEQ ID NO: 1, reference compound]”, the “inhibition of LPS induced lung neutrophil influx” value ([4]; dosed intravenously immediately prior to LPS challenge) is listed as “significant inhibition; also recorded: only demonstrates efficacy when dosed immediately prior to LPS challenge”, the “activity against LPS induced lung neutrophil influx” value ([4]; i.v., given at earlier (FIG. 1) or later (FIG. 4) time points than LPS challenge) is listed as “looses its activity” and the recruitment of eosinophils [6] is listed as “significantly reduce the recruitment of eosinophils”.

Work on “H-GLNVNTLSYGDLAAD [SEQ ID NO: 23, GLNVNTLSYGDLAAD, reference compound]” yielded a half-life [1, 10] of 1.03 h, a half-life [2, 11] greater than 5.13 h and a half-life [3, 12] greater than 5.62 h.

In the case of “H-SELPAGHGLNVNTLS [SEQ ID NO: 5, SELPAGHGLNVNTLS]”, the half-life [1, 10] was 0.2 h, the half-life [2, 11] was 1.32 h and the half-life [3, 12] was 1.85 h.

For H-SELPAGHGLNVNTLSYGDLAAD [SEQ ID NO: 4], the “in vivo efficacy in the mouse LPS lung inflammation model” value ([4]; 0.5, 5 and 500 pg/dose (FIG. 7)) was “maintained in vivo efficacy”, the half-life ([1]; Table 5, read-out: Plasma half-life Mouse) was greater than 6 h and the half-life ([2]; Table 5, read-out: Plasma half-life Rat) was greater than 6 h. The half-life ([3]; Table 5, read-out: Plasma half-life Man) was greater than 6 h and the “plasma half-life compared with fragment 3 (SEQ ID NO: 5)” value ([5]; rat and human plasma (Table 5 vs Table 4)) was “superior half-life”.
